Assay results from the supplement of paper PMC11208160.

Test: recombinant UMI read abundance after kanamycin selection (control-corrected) (log10(CPM+1)); higher = more efficient recombination; extreme values may be limits of the assay; sequences stand for … in AGTGCAGAGAAAATCGGCCAGTTTTCTCTGCCTGCAGTCCGCATGCCGTGGGACCCCTTGGGTTCTAACCTGTTGCCTAGATTTATGCAGCGGACTGCCTTTCTCCCAAAGTGATAAACCGG…AGGTTGGTTTCACT; site = the 11-nt donor
Method in brief: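 Two replicates each of selected and unselected plating were used in this pooled Escherichia coli screen of donor and donor-binding-loop pairs for the IS621 bridge recombinase. Selection was with IPTG (0.07 mM) and kanamycin. Counts of recombinant UMIs, amplified across the donor–target junction, were converted to CPM, averaged, scaled by control-derived factors and reported as log10(CPM+1).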
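Further: IS621 bridge recombinase in Escherichia coli cells against a fixed T5 target plasmid.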

Sequence | recombinant UMI read abundance (log10)
TCAGTAGCATGGACCGGTTTTCCCGGTAATCCGTATTTGCA (site ACAGTATCTTG) | 2.25
TCAGTAGCATGGACCGGTTTTCCCGGTAATCCGTATTTGCA (site TCAGTAGCTTG) | 1.9
TCAGTCTCATGGACCGGTTTTCCCGGTAATCCGTATTTGAT (site TCAGTCTCTAT) | 2.42
TCAGTGCCATGGACCGGTTTTCCCGGTAATCCGTATTTGCG (site TCAGTGCCTCG) | 0.0165
TCATACCCATGGACCGGTTTTCCCGGTAATCCGTATTTGCA (site TCATACACTTG) | 0
TCATACCCATGGACCGGTTTTCCCGGTAATCCGTATTTGCA (site TCATACCCTTG) | 0.0304
TCATACCCATGGACCGGTTTTCCCGGTAATCCGTATTTGCA (site TCATACGCTTG) | 0
TCATACCCATGGACCGGTTTTCCCGGTAATCCGTATTTGCA (site TCATACTCTTG) | 0.995
TCATACGCATGGACCGGTTTTCCCGGTAATCCGTATTTGCA (site TCATACACTTG) | 1.03
TCATACGCATGGACCGGTTTTCCCGGTAATCCGTATTTGCA (site TCATACCCTTG) | 0.169
TCATACGCATGGACCGGTTTTCCCGGTAATCCGTATTTGCA (site TCATACGCTTG) | 2.25
TCATACGCATGGACCGGTTTTCCCGGTAATCCGTATTTGCA (site TCATACTCTTG) | 0.604
TCATACTCATGGACCGGTTTTCCCGGTAATCCGTATTTGCA (site ACATACTCTTG) | 1.34
TCATACTCATGGACCGGTTTTCCCGGTAATCCGTATTTGCA (site CCATACTCTTG) | 2.03
TCATACTCATGGACCGGTTTTCCCGGTAATCCGTATTTGCA (site GCATACTCTTG) | 1.3
TCATACTCATGGACCGGTTTTCCCGGTAATCCGTATTTGCA (site TAATACTCTTG) | 1.45
TCATACTCATGGACCGGTTTTCCCGGTAATCCGTATTTGCA (site TCAAACTCTTG) | 1.19
TCATACTCATGGACCGGTTTTCCCGGTAATCCGTATTTGCA (site TCACACTCTTG) | 1.3
TCATACTCATGGACCGGTTTTCCCGGTAATCCGTATTTGCA (site TCAGACTCTTG) | 0
TCATACTCATGGACCGGTTTTCCCGGTAATCCGTATTTGCA (site TCATAATCTTG) | 0.464
TCATACTCATGGACCGGTTTTCCCGGTAATCCGTATTTGCA (site TCATACACTTG) | 0.64
TCATACTCATGGACCGGTTTTCCCGGTAATCCGTATTTGCA (site TCATACCCTTG) | 0.303
TCATACTCATGGACCGGTTTTCCCGGTAATCCGTATTTGCA (site TCATACGCTTG) | 0.00277
TCATACTCATGGACCGGTTTTCCCGGTAATCCGTATTTGCA (site TCATACTCTAG) | 0
TCATACTCATGGACCGGTTTTCCCGGTAATCCGTATTTGCA (site TCATACTCTCG) | 0.514

Sequence | recombinant UMI read abundance (log10)
TCATACTCATGGACCGGTTTTCCCGGTAATCCGTATTTGCA (site TCATACTCTGG) | 0
TCATACTCATGGACCGGTTTTCCCGGTAATCCGTATTTGCA (site TCATACTCTTA) | 0
TCATACTCATGGACCGGTTTTCCCGGTAATCCGTATTTGCA (site TCATACTCTTC) | 0.0158
TCATACTCATGGACCGGTTTTCCCGGTAATCCGTATTTGCA (site TCATACTCTTG) | 2.69
TCATACTCATGGACCGGTTTTCCCGGTAATCCGTATTTGCA (site TCATACTCTTT) | 0.0879
TCATACTCATGGACCGGTTTTCCCGGTAATCCGTATTTGCA (site TCATAGTCTTG) | 1.54
TCATACTCATGGACCGGTTTTCCCGGTAATCCGTATTTGCA (site TCATATTCTTG) | 0
TCATACTCATGGACCGGTTTTCCCGGTAATCCGTATTTGCA (site TCATCCTCTTG) | 0.111
TCATACTCATGGACCGGTTTTCCCGGTAATCCGTATTTGCA (site TCATGCTCTTG) | 0
TCATACTCATGGACCGGTTTTCCCGGTAATCCGTATTTGCA (site TCATTCTCTTG) | 0
TCATACTCATGGACCGGTTTTCCCGGTAATCCGTATTTGCA (site TCCTACTCTTG) | 1.79
TCATACTCATGGACCGGTTTTCCCGGTAATCCGTATTTGCA (site TCGTACTCTTG) | 2.35
TCATACTCATGGACCGGTTTTCCCGGTAATCCGTATTTGCA (site TCTTACTCTTG) | 2.13
TCATACTCATGGACCGGTTTTCCCGGTAATCCGTATTTGCA (site TGATACTCTTG) | 1.78
TCATACTCATGGACCGGTTTTCCCGGTAATCCGTATTTGCA (site TTATACTCTTG) | 1.2
TCATACTCATGGACCGGTTTTCCCGGTAATCCGTATTTGCC (site TCATACTCTAG) | 1.07
TCATACTCATGGACCGGTTTTCCCGGTAATCCGTATTTGCC (site TCATACTCTCG) | 0
TCATACTCATGGACCGGTTTTCCCGGTAATCCGTATTTGCC (site TCATACTCTGG) | 2.23
TCATACTCATGGACCGGTTTTCCCGGTAATCCGTATTTGCC (site TCATACTCTTG) | 0
TCATACTCATGGACCGGTTTTCCCGGTAATCCGTATTTGCT (site TCATACTCTAG) | 2.47
TCATACTCATGGACCGGTTTTCCCGGTAATCCGTATTTGCT (site TCATACTCTCG) | 0
TCATACTCATGGACCGGTTTTCCCGGTAATCCGTATTTGCT (site TCATACTCTGG) | 0
TCATACTCATGGACCGGTTTTCCCGGTAATCCGTATTTGCT (site TCATACTCTTG) | 0
TCATATACATGGACCGGTTTTCCCGGTAATCCGTATTTGCA (site TCATATACTTG) | 0.743
TCATATACATGGACCGGTTTTCCCGGTAATCCGTATTTGGA (site TCATATACTTC) | 0.727

Sequence | recombinant UMI read abundance (log10)
TCATCGGCATGGACCGGTTTTCCCGGTAATCCGTATTTGAG (site TCATCGGCTCT) | 0.699
TCATCTACATGGACCGGTTTTCCCGGTAATCCGTATTTGTG (site ACATCTACTCA) | 0.0432
TCATCTACATGGACCGGTTTTCCCGGTAATCCGTATTTGTG (site CCATCTACTCA) | 0.00835
TCATCTACATGGACCGGTTTTCCCGGTAATCCGTATTTGTG (site GCATCTACTCA) | 0.0109
TCATCTACATGGACCGGTTTTCCCGGTAATCCGTATTTGTG (site TCATCTACTCA) | 0.00873
TCATGGTCATGGACCGGTTTTCCCGGTAATCCGTATTTGTT (site TCATGGTCTAA) | 0.48
TCCAAAGCATGGACCGGTTTTCCCGGTAATCCGTATTTGAC (site GTACCGCCTAG) | 0
TCCAACTCATGGACCGGTTTTCCCGGTAATCCGTATTTGCC (site TCCAAATCTGG) | 0
TCCAACTCATGGACCGGTTTTCCCGGTAATCCGTATTTGCC (site TCCAACTCTGG) | 0
TCCAACTCATGGACCGGTTTTCCCGGTAATCCGTATTTGCC (site TCCAAGTCTGG) | 0
TCCAACTCATGGACCGGTTTTCCCGGTAATCCGTATTTGCC (site TCCAATTCTGG) | 0
TCCAATTCATGGACCGGTTTTCCCGGTAATCCGTATTTGCC (site ACCAATTCTGG) | 0
TCCAATTCATGGACCGGTTTTCCCGGTAATCCGTATTTGCC (site CCCAATTCTGG) | 0
TCCAATTCATGGACCGGTTTTCCCGGTAATCCGTATTTGCC (site GCCAATTCTGG) | 0
TCCAATTCATGGACCGGTTTTCCCGGTAATCCGTATTTGCC (site TACAATTCTGG) | 0
TCCAATTCATGGACCGGTTTTCCCGGTAATCCGTATTTGCC (site TCAAATTCTGG) | 0
TCCAATTCATGGACCGGTTTTCCCGGTAATCCGTATTTGCC (site TCCAAATCTGG) | 0
TCCAATTCATGGACCGGTTTTCCCGGTAATCCGTATTTGCC (site TCCAACTCTGG) | 0
TCCAATTCATGGACCGGTTTTCCCGGTAATCCGTATTTGCC (site TCCAAGTCTGG) | 0
TCCAATTCATGGACCGGTTTTCCCGGTAATCCGTATTTGCC (site TCCAATACTGG) | 0
TCCAATTCATGGACCGGTTTTCCCGGTAATCCGTATTTGCC (site TCCAATCCTGG) | 0
TCCAATTCATGGACCGGTTTTCCCGGTAATCCGTATTTGCC (site TCCAATGCTGG) | 0
TCCAATTCATGGACCGGTTTTCCCGGTAATCCGTATTTGCC (site TCCAATTCTAG) | 0
TCCAATTCATGGACCGGTTTTCCCGGTAATCCGTATTTGCC (site TCCAATTCTCG) | 0
TCCAATTCATGGACCGGTTTTCCCGGTAATCCGTATTTGCC (site TCCAATTCTGC) | 0
